Data published in US10414731B2, “Substituted oxopyridine derivatives” (priority 2014, dated 2019).

Assays:
human plasma kallikrein = human plasma kallikrein (Homo sapiens (Human), UniProt P03952); test: Determination of the plasma kallikrein activity (fluorogenic peptide substrate); type: biochemical; settings: plasma kallikrein from Kordia, substrate H-Pro-Phe-Arg-AMC, 22° C.
Method: (§1) To determine the plasma kallikrein inhibition of the substances according to the invention, a biochemical test system is used which utilizes the reaction of a peptidic plasma kallikrein substrate to determine the enzymatic activity of human plasma kallikrein. Here, plasma kallikrein cleaves from the peptic plasma kallikrein substrate the C-terminal aminomethylcoumarin (AMC), the fluorescence of which is measured. The determinations are carried out in microtitre plates.
Test substances are dissolved in dimethyl sulphoxide and serially diluted in dimethyl sulphoxide (3000 μM to 0.0078 μM; resulting final concentrations in the test: 50 μM to 0.00013 μM). 1 μl of the diluted substance solutions is placed into each of the wells of white microtitre plates from Greiner (384 wells). 20 μl of assay buffer (50 mM Tris/HCl pH 7.4; 100 mM sodium chloride solution; 5 mM calcium chloride solution; 0.1% of bovine serum albumin) and 20 μl of plasma kallikrein from Kordia (0.6 nM in assay buffer) are then added successively. After […] of incubation, the enzyme reaction is started by addition of 20 μl of the substrate H-Pro-Phe-Arg-AMC dissolved in assay buffer (10 μM in assay buffer) from Bachem, the mixture is incubated at room temperature (22° C.) for […] and fluorescence is then measured (excitation: 360 nm, emission: 460 nm). The measured emissions of the test batches with test substance are compared to those of control batches without test substance (only dimethyl sulphoxide instead of test substance in dimethyl sulphoxide), and IC50 values are calculated from the concentration/activity relationships.

human factor XIa = human factor XIa (Homo sapiens (Human), UniProt P03951); test: Measurement of FXIa inhibition (fluorogenic peptide substrate); type: biochemical; settings: factor XIa from Kordia, substrate Boc-Glu(OBzl)-Ala-Arg-AMC, 22° C., 30 min
Chain of human factor XIa (P03951 whole entry, looked up): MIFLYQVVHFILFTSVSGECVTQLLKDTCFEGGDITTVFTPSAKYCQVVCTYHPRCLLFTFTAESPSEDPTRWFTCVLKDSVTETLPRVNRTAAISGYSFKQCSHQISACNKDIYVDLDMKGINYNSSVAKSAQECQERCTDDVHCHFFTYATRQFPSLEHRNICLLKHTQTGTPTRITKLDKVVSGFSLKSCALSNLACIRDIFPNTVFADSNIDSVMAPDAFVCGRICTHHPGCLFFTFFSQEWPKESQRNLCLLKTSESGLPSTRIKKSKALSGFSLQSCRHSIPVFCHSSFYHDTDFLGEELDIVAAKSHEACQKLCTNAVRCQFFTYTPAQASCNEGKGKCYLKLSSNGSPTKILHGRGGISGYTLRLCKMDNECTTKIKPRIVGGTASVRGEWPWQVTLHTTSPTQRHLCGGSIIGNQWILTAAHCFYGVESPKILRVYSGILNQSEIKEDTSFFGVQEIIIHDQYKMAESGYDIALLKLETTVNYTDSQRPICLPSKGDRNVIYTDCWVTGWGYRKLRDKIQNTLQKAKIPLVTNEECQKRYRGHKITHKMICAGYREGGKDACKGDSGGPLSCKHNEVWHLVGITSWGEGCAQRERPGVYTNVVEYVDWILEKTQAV
Chain of human factor XIa (P03951 whole entry partner, looked up): as the sequence (P03951 whole entry, looked up) above
Method: as §1, with “The factor XIa” for “To determine the plasma kallikrein”, “invention is determined using” for “invention,”, “system” for “system is used”, “factor XIa” for “plasma kallikrein”, “factor XIa.” for “plasma kallikrein.”
1 μl of the diluted substance solutions is placed into each of the wells of white microtitre plates from Greiner (384 wells). […] After […] of incubation, the enzyme reaction is started by addition of 20 μl of the factor XIa substrate Boc-Glu(OBz1)-Ala-Arg-AMC dissolved in assay buffer (10 μM in assay buffer) from Bachem, the mixture is incubated at room temperature (22° C.) for 30 min and fluorescence is then measured (excitation: 360 nm, emission: 460 nm). The measured emissions of the test batches with test substance are compared to those of control batches without test substance (only dimethyl sulphoxide instead of test substance in dimethyl sulphoxide), and IC50 values are calculated from the concentration/activity relationships.

Chain of human plasma kallikrein (P03952 whole entry, looked up): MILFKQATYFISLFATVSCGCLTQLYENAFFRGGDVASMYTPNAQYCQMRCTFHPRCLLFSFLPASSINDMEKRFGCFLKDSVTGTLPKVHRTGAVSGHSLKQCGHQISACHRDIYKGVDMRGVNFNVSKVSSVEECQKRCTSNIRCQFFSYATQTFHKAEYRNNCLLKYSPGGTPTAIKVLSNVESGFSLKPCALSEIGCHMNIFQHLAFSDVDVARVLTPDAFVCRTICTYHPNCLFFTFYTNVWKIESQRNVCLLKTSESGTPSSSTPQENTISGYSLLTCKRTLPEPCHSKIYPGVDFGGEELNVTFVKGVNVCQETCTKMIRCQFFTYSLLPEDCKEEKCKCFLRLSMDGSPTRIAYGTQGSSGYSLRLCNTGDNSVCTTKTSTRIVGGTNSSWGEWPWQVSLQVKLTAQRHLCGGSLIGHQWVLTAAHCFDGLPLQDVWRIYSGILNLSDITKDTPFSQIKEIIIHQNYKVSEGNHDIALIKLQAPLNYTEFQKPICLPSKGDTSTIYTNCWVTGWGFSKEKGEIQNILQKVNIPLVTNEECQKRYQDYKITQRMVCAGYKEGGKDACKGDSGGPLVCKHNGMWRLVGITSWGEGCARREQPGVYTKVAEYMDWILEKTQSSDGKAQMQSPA
Chain of human plasma kallikrein (P03952 whole entry partner, looked up): as the sequence (P03952 whole entry, looked up) above

| Compound | IC50 (human plasma kallikrein) | IC50 (human factor XIa) |
| --- | --- | --- |
| CCC(C(=O)Nc1ccc(C(=O)OCCN2CCN(C)CC2)cc1)n1cc(OC)c(-c2cc(Cl)ccc2C#N)cc1=O (single isomer, unassigned) [Example 14, 2-(4-Methylpiperazin-1-yl)ethyl 4-({2-[4-(5-chloro-2-cyanophenyl)-5-methoxy-2-oxopyridin-1(2H)-yl]butanoyl}amino)benzoate] | 38 nM |  |
| CCC(C(=O)Nc1ccc(C(=O)OCCN2CCCC2)cc1)n1cc(OC)c(-c2cc(Cl)ccc2C#N)cc1=O (single isomer, unassigned) [Example 16, 2-(Pyrrolidin-1-yl)ethyl 4-({2-[4-(5-chloro-2-cyanophenyl)-5-methoxy-2-oxopyridin-1(2H)-yl]butanoyl}amino)benzoate] | 40 nM |  |
| CCC(C(=O)Nc1ccc(C(=O)OC[C@H](NC(=O)[C@H](C(C)C)N(C)C)C(=O)O)cc1)n1cc(OC)c(-c2cc(Cl)ccc2C#N)cc1=O (single isomer, unassigned) [Example 9, N,N-Dimethyl-L-valyl-O-[4-({2-[4-(5-chloro-2-cyanophenyl)-5-methoxy-2-oxopyridin-1(2H)-yl]butanoyl}amino)benzoyl]-L-serine] | 51 nM | 63 nM |
| CCC(C(=O)Nc1ccc(C(=O)OC(C)[C@H](N)C(=O)O)cc1)n1cc(OC)c(-c2cc(Cl)ccc2C#N)cc1=O (single isomer, unassigned) [Example 2, O-[4-({2-[4-(5-Chloro-2-cyanophenyl)-5-methoxy-2-oxopyridin-1(2H)-yl]butanoyl}amino)-benzoyl]-L-threonine] | 93 nM | 54 nM |
| CCC(C(=O)Nc1ccc(C(=O)OC[C@@H](C(=O)O)N2CCCC2)cc1)n1cc(OC)c(-c2cc(Cl)ccc2C#N)cc1=O (single isomer, unassigned) [Example 12] | 43 nM | 26 nM |
| CCC(C(=O)Nc1ccc(C(=O)OC[C@H](NC(=O)C2CCCCN2C)C(=O)O)cc1)n1cc(OC)c(-c2cc(Cl)ccc2C#N)cc1=O (single isomer, unassigned) [Example 7] | 52 nM | 91 nM |
| CCC(C(=O)Nc1ccc(C(=O)OC[C@H](NC(=O)CN2CCCC2)C(=O)O)cc1)n1cc(OC)c(-c2cc(Cl)ccc2C#N)cc1=O (single isomer, unassigned) [Example 5, O-[4-({2-[4-(5-Chloro-2-cyanophenyl)-5-methoxy-2-oxopyridin-1(2H)-yl]butanoyl}amino)-benzoyl]-N-(pyrrolidin-1-ylacetyl)-L-serine] | 35 nM | 60 nM |
| CCC(C(=O)Nc1ccc(C(=O)OC[C@H](NC(=O)[C@@H]2CCCN2)C(=O)O)cc1)n1cc(OC)c(-c2cc(Cl)ccc2C#N)cc1=O (stereo partly drawn) [Example 6, Prolyl-O-[4-({2-[4-(5-chloro-2-cyanophenyl)-5-methoxy-2-oxopyridin-1(2H)-yl]butanoyl}amino)-benzoyl]-L-serine] | 44 nM | 65 nM |
| CCC(C(=O)Nc1ccc(C(=O)OC[C@H](NC(=O)C2(N(C)C)CC2)C(=O)O)cc1)n1cc(OC)c(-c2cc(Cl)ccc2C#N)cc1=O (single isomer, unassigned) [Example 8, O-[4-({2-[4-(5-Chloro-2-cyanophenyl)-5-methoxy-2-oxopyridin-1(2H)-yl]butanoyl}amino)-benzoyl]-N-{[1-(dimethylamino)cyclopropyl]carbonyl}-L-serine] | 55 nM | 110 nM |
| CCC(C(=O)Nc1ccc(C(=O)OC[C@H](N)C(=O)O)cc1)n1cc(OC)c(-c2cc(Cl)ccc2C#N)cc1=O (single isomer, unassigned) [Example 4, O-[4-({2-[4-(5-Chloro-2-cyanophenyl)-5-methoxy-2-oxopyridin-1(2H)-yl]butanoyl}amino)-benzoyl]-L-serine] | 92 nM | 54 nM |
| CCC(C(=O)Nc1ccc(C(=O)OCCC2CCNCC2)cc1)n1cc(OC)c(-c2cc(Cl)ccc2C#N)cc1=O (single isomer, unassigned) [Example 15, 2-(Piperidin-4-yl)ethyl 4-({2-[4-(5-chloro-2-cyanophenyl)-5-methoxy-2-oxopyridin-1(2H)-yl]butanoyl}amino)benzoate] | 44 nM | 230 nM |
| CCC(C(=O)Nc1ccc(C(=O)OC2CCN(C)CC2)cc1)n1cc(OC)c(-c2cc(Cl)ccc2C#N)cc1=O (single isomer, unassigned) [Example 13, 1-Methylpiperidin-4-yl 4-({2-[4-(5-chloro-2-cyanophenyl)-5-methoxy-2-oxopyridin-1(2H)-yl]butanoyl}amino)benzoate] | 120 nM | 230 nM |
| CCC(C(=O)Nc1ccc(C(=O)OC[C@](C)(N)C(=O)O)cc1)n1cc(OC)c(-c2cc(Cl)ccc2C#N)cc1=O (single isomer, unassigned) [Example 3, O-[4-({2-[4-(5-Chloro-2-cyanophenyl)-5-methoxy-2-oxopyridin-1(2H)-yl]butanoyl}amino)-benzoyl]-2-methyl-L-serine] | 60 nM | 82 nM |
| COc1cn(C(C[C@@H]2CCCCO2)C(=O)Nc2ccc(C(=O)OC(C)[C@H](N)C(=O)O)cc2)c(=O)cc1-c1cc(Cl)ccc1C#N (single isomer, unassigned) [Example 1] | 9.1 nM | 2 nM |
| CCC(C(=O)Nc1ccc(C(=O)O[C@H]2CCN[C@@H]2C(=O)O)cc1)n1cc(OC)c(-c2cc(Cl)ccc2C#N)cc1=O (single isomer, unassigned) [Example 10] | 91 nM | 14 nM |
| CCC(C(=O)Nc1ccc(C(=O)O[C@H]2CN[C@@H](C(=O)O)C2)cc1)n1cc(OC)c(-c2cc(Cl)ccc2C#N)cc1=O (single isomer, unassigned) [Example 11] | 280 nM | 260 nM |
